{"source": "patent US20150174283A1", "about": "“Smart, Self-Decontaminating Polymer and Method for Inhibiting The Growth Of A Bacteria and Fungus” (priority 2012, published 2015)", "key": {"Staphylococcus aureus": {"test_system": "Staphylococcus aureus", "assay": "S. aureus growth on TSA plates with or without hydroxylamine and polymer foams", "assay_type": "cell-based", "conditions": "TSA plates containing 500 uM HA, no polymer, 18 hours, 37 C", "description": "The microorganism, Staphylococcus aureus (S. aureus/Staph), was utilized. Staphylococcus aureus is an important bacterium to study and ultimately have the ability to inhibit, as Staphlococcus can cause a number of diseases as a result of infection. The strain Methicillin-resistant Staphylococcus aureus or MRSA is a multi-drug resistant bacterium, making any MRSA infection difficult to treat with standard antibiotics and is thus a more dangerous infection; the number of drug-resistant MRSA cases has increase by 90% over the past decade. MRSA is the most significant infection encountered in hospital settings, costing US hospitals $3.2 to 4.2 billion annually to treat infected patients. Patients with MRSA infections often require longer hospital stays and more time spent in intensive care units. […]"}, "host cells": {"test_system": "host cells", "conditions": "cited from earlier work"}, "[1]": {"assay": "chlorination of thionin by enzymes in solution (bleaching followed at 598 nm)", "assay_type": "biochemical", "conditions": "substrate glucose", "experimental": "The chlorinating activity of composite polymers was measured by following the chlorination of a colored substrate (thionin). The thionin is a blue-violet dye that absorbs at 598 nm and undergoes bleaching (to colorless) upon chlorination. A battery of tests were carried out in 100 mM phosphate citrate buffer at pH 4.0. […] The reaction mixture comprised 1.45 mL of the thionin/NaCl solution, 30 μL of the substrate solution (glucose or peroxide), and 25 μL of the enzyme solution (total). Buffer was used to replace the enzyme or substrate in control reactions."}}}
{"molecule": "NO", "note": "[HA, hydroxylamine]", "values": [{"measurement": "S. aureus growth", "setting": "Staphylococcus aureus", "result": "does not inhibit the growth"}, {"measurement": "S. aureus growth", "setting": "Staphylococcus aureus; listed as Hydroxylamine", "result": "not effected"}]}
{"molecule": "OO", "note": "[hydrogen peroxide, Hydrogen peroxide]", "values": [{"measurement": "concentration toxic to the host cells", "setting": "host cells", "result": "> 3", "unit": "%"}]}
{"molecule": "glucose oxidase", "values": [{"measurement": "absorbance of thionin at 598 nm, after two minutes", "setting": "[1]; 20 mM NaCl, pH 4.0", "result": 0.670}, {"measurement": "color change of thionin", "setting": "[1]; thionin/NaCl solution, two minutes", "result": "no color change was observed"}]}
